Test results as given in US20240132467A1, “BENZIMIDAZOLE DERIVATIVES FOR TREATING RESPIRATORY DISEASE” (TMEM16A Limited, priority 2020, published 2024).

Target: T1, human TMEM16A (TMEM16Aabc variant) (Homo sapiens, UniProt Q5XXA6, DEL476-501)
T1 sequence (Q5XXA6 with tags, fused parts or gaps isoform Q5XXA6-5 DEL539-564): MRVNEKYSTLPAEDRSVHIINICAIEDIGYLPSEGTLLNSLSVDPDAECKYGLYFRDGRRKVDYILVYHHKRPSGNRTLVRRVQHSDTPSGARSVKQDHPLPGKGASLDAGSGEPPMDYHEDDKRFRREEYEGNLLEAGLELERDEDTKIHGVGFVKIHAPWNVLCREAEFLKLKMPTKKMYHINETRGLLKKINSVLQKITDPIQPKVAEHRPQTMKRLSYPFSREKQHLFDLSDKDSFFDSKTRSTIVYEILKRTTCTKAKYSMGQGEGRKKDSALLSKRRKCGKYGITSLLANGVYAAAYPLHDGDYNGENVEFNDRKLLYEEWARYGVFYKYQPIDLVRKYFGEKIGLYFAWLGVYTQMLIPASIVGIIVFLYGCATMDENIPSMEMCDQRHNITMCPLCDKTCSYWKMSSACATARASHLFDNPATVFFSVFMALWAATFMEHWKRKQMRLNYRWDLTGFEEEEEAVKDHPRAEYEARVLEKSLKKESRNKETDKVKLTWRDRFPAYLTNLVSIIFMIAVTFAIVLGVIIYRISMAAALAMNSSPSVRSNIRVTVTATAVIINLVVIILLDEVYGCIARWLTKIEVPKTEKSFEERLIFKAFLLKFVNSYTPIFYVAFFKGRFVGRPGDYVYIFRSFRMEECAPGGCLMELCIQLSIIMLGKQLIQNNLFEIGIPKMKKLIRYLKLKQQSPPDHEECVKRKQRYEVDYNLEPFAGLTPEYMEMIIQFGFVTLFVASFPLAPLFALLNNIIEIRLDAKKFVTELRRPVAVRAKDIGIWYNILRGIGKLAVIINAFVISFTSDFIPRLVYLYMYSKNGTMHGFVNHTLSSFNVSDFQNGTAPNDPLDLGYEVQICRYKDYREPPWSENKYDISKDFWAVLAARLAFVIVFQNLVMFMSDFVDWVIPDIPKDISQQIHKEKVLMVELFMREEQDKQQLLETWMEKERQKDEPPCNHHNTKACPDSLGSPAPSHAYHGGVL
Assay: Automated whole-cell patch clamp (Qpatch) TMEM16A potentiator assay in FRT cells stably expressing human TMEM16A
Assay type: cell-based
Settings: for activation at 3.33 µM: 3.33 μM test compound, percentage increase of baseline TMEM16A current at +70 mV, intracellular calcium at EC20, read-out: % Potentiation @ 3.33 μM Avg; for EC50: cumulative concentration response, 5 min per concentration, whole-cell patch clamp
Description: Automated whole-cell patch clamp assay to detect TMEM16A activity in recombinant cells Cell culture and preparation
Fisher rat thyroid (FRT) cells stably expressing human TMEM16A (TMEM16Aabc variant; Dr Luis Galietta, Insituto Giannina, Italy) were cultured in T-75 flasks in Hams F-12 media with Coon's modification (Sigma) supplemented with 10% (v/v) foetal bovine serum, penicillin-streptomycin (10,000 U/mL/10000 μg/mL), G-418 (750μg/mL), L-glutamine (2 mM) and sodium bicarbonate solution (7.5% v/v). At —90% confluence cells were harvested for experiments by detachment with a 2:1 (v/v) mixture of Detachin (BMS Biotechnology) and 0.25% (w/v) trypsin-EDTA. Cells were diluted to a density of 3.5-4.5×10^6 cells/mL with media consisting of CHO-S-SFM II (Sigma), 25 mM HEPES (Sigma) and Soy bean trypsin inhibitor (Sigma).
Whole-Cell Patch Clamp Recording
FRT-TMEM16A cells were whole-cell patch clamped using an automated planar patch clamp system (Qpatch, Sophion). Briefly, once high resistance (GOhm) seals were established between the cells and the planar recording array the patch was ruptured using suction pulses to establish the whole-cell recording configuration of the patch clamp technique. The assay employed the following solutions (all reagents Sigma):
Intracellular solution (mM): N-methyl-D-glucamine 130, CaCl2 18.2, MgCl2 1, HEPES 10, EGTA 10, BAPTA 20, Mg-ATP 2, pH 7.25, 325mOsm with sucrose.
Extracellular solution (mM): N-methyl-D-glucamine 130, CaCl2 2, MgCl2 1, HEPES 10, pH 7.3, 320 mOsm with sucrose.
The intracellular solution buffers intracellular calcium at levels required to give —20% activation of the maximal TMEM16A mediated current (EC20 for calcium ions). Cells were voltage clamped at a holding potential of -70mV and a combined voltage step (to +70 mV)/ramp (−90 my to +90 mV) was applied at 0.05 Hz. After a period of current stabilisation test compounds, solubilised in 100% (v/v) DMSO and subsequently diluted into extracellular solution, were applied to generate a cumulative concentration response curve. Each concentration of test compound was incubated for 5 minutes before addition of the next concentration. After the final concentration was tested a supramaximal concentration of either a known active positive modulator or the TMEM16A inhibitor, CaCCinhA01 (Del La Fuente et al, 2008) was added to define the upper and lower limits of the assay.
Compound activity was quantified by measuring the increase in current upon compound addition and expressing this as a percentage increase of baseline TMEM16A current level. Percentage increases in current were determined for each concentration and the data plotted as a function of concentration using either the Qpatch software or Graphpad Prism v6.05 providing the concentration which gave 50% of its maximal effect (EC50) and maximum efficacy (percentage of baseline increase).
In FIG. 1, IBL equals baseline current, km equals the peak current during test compound concentration 1 incubation period and so on.
Peak TMEM16A current at +70mV was plotted as a function of time over the assay period. Baseline current (IBL) was measured after a period of stabilisation. The increase in current for each compound addition was determined by taking the peak current during the incubation period and subtracting the current from the previous recording period and then expressing this as a percentage of the baseline current. For test compound concentration 1 in FIG. 1 this is:
For each additional concentration tested the increase in current was determined by subtracting the current from the previous incubation period and normalising the baseline value—for test concentration 2 in FIG. 1 this is:
The values for each test concentration were plotted as a cumulative function of concentration e.g. for test concentration two this would be the sum of the peak changes measured during concentration one plus concentration two.

Row | Compound | activation at 3.33 µM [%] | EC50 [nM]
1 | COCCc1nc2ccc(NC(=O)CC3C4CC5CC(C4)CC3C5)cc2[nH]1 (stereo not shown) [Example 2.2.5, 2-(2-Adamantyl)-N[2-(2-methoxyethyl)-3H-benzimidazol-5-yl]acetamide] | 113 | 758
2 | COCCCc1nc2cc(NC(=O)CC3C4CC5CC(C4)CC3C5)ccc2[nH]1 (stereo not shown) [Example 2.2.6, 2-(2-Adamantyl)-N[2-(3-methoxypropyl)-1H-benzimidazol-5-yl]acetamide] | 167 | 780
3 | CN(Cc1nc2cc(NC(=O)CC3C4CC5CC(C4)CC3C5)ccc2[nH]1)C(=O)OC(C)(C)C (stereo not shown) [Example 2.3, tert-Butyl N-[[5-[[2-(2-adamanty)acetyl]amino]-1H-benzimidazol-2-yl]methyl]-N-methyl-carbamate] | 201 | 1070
4 | O=C(NCC1CCCCCC1)c1ccc2[nH]c(C3COc4ccccc43)nc2c1 (stereo not shown) [Example 2.4, N-(Cycloheptylmethyl)-2-(2,3-dihydrobenzofuran-3-yl)-1H-benzimidazole-5-carboxamide] | 133 | 658
5 | O=C(CC1C2CC3CC(C2)CC1C3)Nc1ccc2[nH]c(C(O)c3ccccc3)nc2c1 (stereo not shown) [Example 2.5, 2-(2-Adamantyl)-N-12-[hydroxy(phenyl)methyl]-1H-benzimidazol-5-yljacetamide] | 58.9 | 150
6 | O=C(CC1CCCCC1)Nc1ccc2[nH]c(-c3ccccc3)nc2c1 [Example 3.1, 2-Cyclohexyl-N-(2-phenyl-1H-benzimidazol-5-yl)acetamide] | 74 | 287
7 | O=C(Nc1ccc2[nH]c(Cc3ccccc3)nc2c1)C12CC3CC(CC(C3)C1)C2 [Example 3.2, N-(2-Benzyl-1H-benzimidazol-5-yl)adamantane-1-carboxamide] | 58.5 | 332
8 | O=C(NCC1CCCCCC1)c1cc(F)c2[nH]c(Cc3cccc(O)c3)nc2c1 [Example 3.3, N-(Cycloheptylmethyl)-7-fluoro-2-[(3-hydroxyphenyl)methyl]-1H-benzimidazole-5-carboxamide] | 114 | 554
9 | O=C(NCC1CCCCCC1)c1cc2nc(Cc3cccc(O)c3)[nH]c2cc1F [Example 3.3.1, N-(Cycloheptylmethyl)-6-fluoro-2-[(3-hydroxyphenyl)methyl]-1H-benzimidazole-5-carboxamide] | 95.8 | 471
10 | O=C(NCC1CCCCCC1)c1ccc2[nH]c(Cc3cccc(O)c3)nc2c1F [Example 3.3.2, N-(Cycloheptylmethyl)-4-fluoro-2-[(3-hydroxyphenyl)methyl]-1H-benzimidazole-5-carboxamide] | 90.2 | 598
11 | Cc1noc(C)c1Cc1nc2cc(NC(=O)CC3C4CC5CC(C4)CC3C5)ccc2[nH]1 (stereo not shown) [Example 3.4.1] | 116 | 576
12 | CC(C)(C)OC(=O)NCCc1nc2cc(NC(=O)CC3C4CC5CC(C4)CC3C5)ccc2[nH]1 (stereo not shown) [Example 3.4] | 99.8 | 471
13 | CC(C)(C)CNC(=O)c1ccc2[nH]c(Cc3ccccc3)nc2c1 [Example 3.5, 2-Benzyl-N-(2,2-dimethylpropyl)-1H-benzimidazole-5-carboxamide] | 144 | 1020
14 | CC(C)(C)C(C)(C)NC(=O)c1ccc2[nH]c(Cc3ccccc3)nc2c1 [Example 3.5.1, 2-Benzyl-N-(1,1,2,2-tetramethylpropyl)-1H-benzimidazole-5-carboxamide] | 89.5 | 779
